Consider 5 compounds from ChEMBL document CHEMBL1687830, “Evaluation of ceftazidime and NXL104 in two murine models of infection due to KPC-producing Klebsiella pneumoniae” (2011).

Converted amounts (≈) assume the structure as drawn.

Common to all, as to format: functional
The test system of test [1] is Klebsiella pneumoniae. Description: Antimicrobial activity against carbapenemases KPC-producing Klebsiella pneumoniae VA-406 infected in sc dosed CD-1 mouse in presence of 4 ug/ml cavulanate beta-lactamase inhibitor.
Test [2] concerns Klebsiella pneumoniae. As to the kind of experiment: Antimicrobial activity against carbapenemases KPC-producing Klebsiella pneumoniae VA-361 infected in sc dosed CD-1 mouse.
The subject of test [3] is Klebsiella pneumoniae. As to the kind of experiment: Antimicrobial activity against carbapenemases KPC-producing Klebsiella pneumoniae VA-406 infected in sc dosed CD-1 mouse.
Test [4] has as its system Klebsiella pneumoniae. As to the kind of experiment: Antimicrobial activity against carbapenemases KPC-producing Klebsiella pneumoniae VA-361 infected in sc dosed CD-1 mouse in presence of 4 ug/ml cavulanate beta-lactamase inhibitor.
Test [5] relates to Klebsiella pneumoniae. As to the kind of experiment: Antimicrobial activity against carbapenemases KPC-producing Klebsiella pneumoniae VA-406 infected in sc dosed CD-1 mouse in presence of 4 ug/ml Tazobactam beta-lactamase inhibitor.
Test [6] concerns Klebsiella pneumoniae. Description: Antimicrobial activity against carbapenemases KPC-producing Klebsiella pneumoniae VA-361 infected in sc dosed CD-1 mouse in presence of 4 ug/ml Tazobactam beta-lactamase inhibitor.
Test [7] deals with Klebsiella pneumoniae. Description: Antimicrobial activity against carbapenemases KPC-producing Klebsiella pneumoniae VA-361 infected in sc dosed CD-1 mouse in presence of 1 ug/ml NXL104 beta-lactamase inhibitor.
The test system of test [8] is Klebsiella pneumoniae. As to the kind of experiment: Antimicrobial activity against carbapenemases KPC-producing Klebsiella pneumoniae VA-361 infected in sc dosed CD-1 mouse in presence of 4 ug/ml NXL104 beta-lactamase inhibitor.
The subject of test [9] is Klebsiella pneumoniae. Description: Antimicrobial activity against carbapenemases KPC-producing Klebsiella pneumoniae VA-406 infected in sc dosed CD-1 mouse in presence of 2 ug/ml NXL104 beta-lactamase inhibitor.
Test [10] deals with Klebsiella pneumoniae. As to the kind of experiment: Antimicrobial activity against carbapenemases KPC-producing Klebsiella pneumoniae VA-406 infected in sc dosed CD-1 mouse in presence of 4 ug/ml NXL104 beta-lactamase inhibitor.
In test [11] the test system is Klebsiella pneumoniae. Description: Antimicrobial activity against carbapenemases KPC-producing Klebsiella pneumoniae VA-406 infected in sc dosed CD-1 mouse in presence of 1 ug/ml NXL104 beta-lactamase inhibitor.
The subject of test [12] is Klebsiella pneumoniae. Description: Antimicrobial activity against carbapenemases KPC-producing Klebsiella pneumoniae VA-361 infected in sc dosed CD-1 mouse in presence of 2 ug/ml NXL104 beta-lactamase inhibitor.
For test [13], the system named is Klebsiella pneumoniae. As to the kind of experiment: Antimicrobial activity against carbapenemases KPC-producing Klebsiella pneumoniae VA-361 infected in CD-1 mouse thigh infection model assessed as change in log10 CFU reduction per thigh treated 1.5 hr post infection at 2048 mg/kg, sc after 24 hrs by acute lethal septicemia analysis (reference value: 8.93 log10CFU/thigh). To be noted: route subcutaneous.

Test [14] has as its system Klebsiella pneumoniae. As to the kind of experiment: Antimicrobial activity against carbapenemases KPC-producing Klebsiella pneumoniae VA-361 infected in CD-1 mouse thigh infection model assessed as change in log10 CFU reduction per thigh treated 1.5 hr post infection at 1024 mg/kg, sc after 24 hrs by acute lethal septicemia analysis (reference value: 8.93 log10CFU/thigh). The following applies: route subcutaneous.

The test system of test [15] is Klebsiella pneumoniae. As to the kind of experiment: Antimicrobial activity against carbapenemases KPC-producing Klebsiella pneumoniae VA-406 infected in CD-1 mouse thigh infection model assessed as change in log10 CFU reduction per thigh treated 1.5 hr post infection at 1024 mg/kg, sc after 24 hrs by acute lethal septicemia analysis (reference value: 8.67 log10CFU/thigh). The following applies: route subcutaneous.

For test [16], the system named is Klebsiella pneumoniae. Description: Antimicrobial activity against carbapenemases KPC-producing Klebsiella pneumoniae VA-361 infected in CD-1 mouse thigh infection model assessed as change in log10 CFU reduction per thigh treated 1.5 hr post infection at >=1024:256 mg/kg, sc compound to NXL104 beta-lactamase inhibitor ratio after 24 hrs by acute lethal septicemia analysis (reference value: 8.93 log10CFU/thigh).

The test system of test [17] is Klebsiella pneumoniae. As to the kind of experiment: Antimicrobial activity against carbapenemases KPC-producing Klebsiella pneumoniae VA-406 infected in CD-1 mouse thigh infection model assessed as change in log10 CFU reduction per thigh treated 1.5 hr post infection at 2048 mg/kg, sc after 24 hrs by acute lethal septicemia analysis (reference value: 8.67 log10CFU/thigh). To be noted: route subcutaneous.

The test system of test [18] is Klebsiella pneumoniae. As to the kind of experiment: Antimicrobial activity against carbapenemases KPC-producing Klebsiella pneumoniae VA-406 infected in CD-1 mouse thigh infection model assessed as change in log10 CFU reduction per thigh treated 1.5 hr post infection at >=8:2 mg/kg, sc compound to NXL104 beta-lactamase inhibitor ratio after 24 hrs by acute lethal septicemia analysis (reference value: 8.67 log10CFU/thigh).

Broadly, the MIC is the smallest concentration in the dilution series that meets the test's criterion for growth inhibition.

With `C[C@@H](O)[C@H]1C(=O)N2C(C(=O)O)=C(SCCNC=N)C[C@H]12` [IMIPENEM ANHYDROUS], the MIC in the test with Klebsiella pneumoniae [1] is 128 µg/mL; with Klebsiella pneumoniae [2], 4 µg/mL (≈ 13.4 µM); in the test with Klebsiella pneumoniae [3], 256 µg/mL (≈ 855 µM); with Klebsiella pneumoniae [4] it was 2 µg/mL; in the test on Klebsiella pneumoniae [5] it was 256 µg/mL; in the test with Klebsiella pneumoniae [6] it was 4 µg/mL.
For the compound `CO/N=C(\C(=O)N[C@@H]1C(=O)N2C(C(=O)O)=C(COC(C)=O)CS[C@H]12)c1csc(N)n1` [CEFOTAXIME], the MIC with Klebsiella pneumoniae [1] is 256 µg/mL; in the test on Klebsiella pneumoniae [7] it was 0.5 µg/mL; in the test on Klebsiella pneumoniae [8], 0.125 µg/mL; in the test on Klebsiella pneumoniae [2], 64 µg/mL (≈ 141 µM); in the test on Klebsiella pneumoniae [3], not below 512 µg/mL; in the test with Klebsiella pneumoniae [9] it was 0.5 µg/mL. Besides, the MIC with Klebsiella pneumoniae [4] is 16 µg/mL; with Klebsiella pneumoniae [10], 0.125 µg/mL; with Klebsiella pneumoniae [11], 0.5 µg/mL; in the test with Klebsiella pneumoniae [5], 256 µg/mL; with Klebsiella pneumoniae [6], 16 µg/mL; in the test on Klebsiella pneumoniae [12] it was 0.5 µg/mL.
With `C[C@@H](O)[C@H]1C(=O)N2C(C(=O)O)=C(S[C@@H]3CN[C@H](C(=O)N(C)C)C3)[C@H](C)[C@H]12` [MEROPENEM], the MIC in the test on Klebsiella pneumoniae [1] was 128 µg/mL; with Klebsiella pneumoniae [2], 4 µg/mL (≈ 10.4 µM); against Klebsiella pneumoniae [3], 256 µg/mL (≈ 668 µM); in the test with Klebsiella pneumoniae [4] it was 2 µg/mL; in the test on Klebsiella pneumoniae [5] it was 128 µg/mL; with Klebsiella pneumoniae [6], 4 µg/mL.
As to `CCN1CCN(C(=O)N[C@@H](C(=O)N[C@@H]2C(=O)N3[C@@H]2SC(C)(C)[C@@H]3C(=O)O)c2ccccc2)C(=O)C1=O` [PIPERACILLIN], the MIC in the test on Klebsiella pneumoniae [7] was 32 µg/mL; in the test with Klebsiella pneumoniae [8], not above 0.06 µg/mL; in the test with Klebsiella pneumoniae [2] it was not below 512 µg/mL; against Klebsiella pneumoniae [3] it was not below 512 µg/mL; in the test on Klebsiella pneumoniae [9] it was 8 µg/mL; in the test on Klebsiella pneumoniae [10] it was 0.5 µg/mL. The MIC in the test with Klebsiella pneumoniae [11] is 16 µg/mL; in the test on Klebsiella pneumoniae [5], not below 512 µg/mL; with Klebsiella pneumoniae [6], not below 512 µg/mL; in the test on Klebsiella pneumoniae [12], 8 µg/mL. Further, the log10cfu with Klebsiella pneumoniae [13] was -0.34; with Klebsiella pneumoniae [14] it was -0.32; with Klebsiella pneumoniae [15], 0.25; in the test on Klebsiella pneumoniae [16], -1.76; with Klebsiella pneumoniae [17], 0.03; with Klebsiella pneumoniae [18], 2.93.
As for `CO/N=C(\C(=O)N[C@@H]1C(=O)N2C(C(=O)[O-])=C(C[N+]3(C)CCCC3)CS[C@H]12)c1csc(N)n1` [CEFEPIME], the minimal inhibitory concentration (MIC) was 128 µg/mL in the test with Klebsiella pneumoniae [1]; 0.5 µg/mL with Klebsiella pneumoniae [7]; not above 0.06 µg/mL in the test on Klebsiella pneumoniae [8]; 32 µg/mL (≈ 66.6 µM) with Klebsiella pneumoniae [2]; 256 µg/mL (≈ 533 µM) in the test on Klebsiella pneumoniae [3]; 0.5 µg/mL in the test on Klebsiella pneumoniae [9]. Moreover, the MIC with Klebsiella pneumoniae [4] was determined as 8 µg/mL; with Klebsiella pneumoniae [10], 0.125 µg/mL; in the test on Klebsiella pneumoniae [11], 0.5 µg/mL; in the test with Klebsiella pneumoniae [5], 128 µg/mL; in the test with Klebsiella pneumoniae [12], 0.25 µg/mL.
